Our source for the IC50 values is US20250163104A1, “MACROCYCLIC IMMUNOMODULATORS” (priority 2021, published 2025).

Where two headings read alike, the source gives them in different places. Where a SMILES comes first, the peptide text is derived from it. Bridges are numbered along the chain shown (N, C = ends). [ ]: non-standard residue; d: D form. The star is where a group is joined. ξ: configuration not given here. Phe(4-COOH) = N[C@@H](Cc1ccc(C(=O)O)cc1)C(=O)O; Bip = N[C@@H](Cc1ccc(-c2ccccc2)cc1)C(=O)O; Phe(3-Me) = Cc1cccc(C[C@H](N)C(=O)O)c1; Phe(2-F) = N[C@@H](Cc1ccccc1F)C(=O)O; 4Pal = N[C@@H](Cc1ccncc1)C(=O)O; Cha = N[C@@H](CC1CCCCC1)C(=O)O; Ile(3ξ) = CCC(C)[C@H](N)C(=O)O; Tle = CC(C)(C)[C@H](N)C(=O)O; hSer = N[C@@H](CCO)C(=O)O; Carboxymethyl = O=C(O)C*; Orn = NCCC[C@H](N)C(=O)O; Dab = NCC[C@H](N)C(=O)O; Dap = NC[C@H](N)C(=O)O

In the assay the target is T1, human PD-1 / PD-L1-Ig binding on Jurkat cell line over-expressing human PD-1 (Jurkat-PD-1) (Homo sapiens, UniProt Q15116).
T1 construct: expressed in transfected cells; host or cells: Jurkat
Put plainly: Jurkat-PD-1 Cell Binding High-Content Screening Assay (CBA). Type of assay: cell-based. The conditions noted are these: PE-labeled PD-L1-Ig 20 nM final. The gist of the method:
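Read-out: high-content imaging of PE-tagged PD-L1-Ig bound to Jurkat cells overexpressing human PD-1, after fixation with 4% paraformaldehyde and Hoechst 33342 nuclear staining. Ligand was used at 20 nM final for 1 hour, after a 2 h compound exposure at 37° C in serum-containing DMEM.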

Where [1] appears, read: Jurkat-PD-1 cells, read-out: Jurkat HPD1_PDL1 IC50.
Setting [2] is: Jurkat HPD1_PDL1 IC50, Jurkat-PD-1 cells.

T1 sequence (Q15116 25-288): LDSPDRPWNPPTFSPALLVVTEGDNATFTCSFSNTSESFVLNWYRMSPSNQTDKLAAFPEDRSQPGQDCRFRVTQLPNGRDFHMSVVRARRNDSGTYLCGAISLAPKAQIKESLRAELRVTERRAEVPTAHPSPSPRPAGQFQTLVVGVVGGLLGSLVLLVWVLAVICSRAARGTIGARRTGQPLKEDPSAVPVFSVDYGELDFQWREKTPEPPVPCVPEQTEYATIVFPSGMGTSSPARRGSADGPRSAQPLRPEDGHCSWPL

For orientation: IC50 means the concentration needed to halve the response being measured. Take `CCC[C@@H]1NC(=O)[C@H](Cc2c[nH]c3ccccc23)NC(=O)[C@H](CC(=O)O)NC(=O)[C@H](Cc2ccc(OCC(=O)O)cc2)NC(=O)[C@H](CN)NC(=O)CSC[C@@H](C(=O)N[C@@H](C)C(N)=O)NC(=O)[C@H]([C@@H](C)O)NC(=O)[C@H](C(C)C)NC(=O)[C@H](CC2CCCCC2)NC(=O)[C@H](CCN)NC(=O)[C@@H](CC(C)C)NC(=O)[C@H](CCCN)NC(=O)[C@H](CCCNC(N)=O)NC(=O)[C@H](Cc2ccc(-c3ccccc3)cc2)NC1=O` [Compound 1355]: the IC50 under setting [1] is 8.2 nM.

For `CC(C)C[C@H]1NC(=O)[C@H](CCCN)NC(=O)[C@H](CCC(=O)O)NC(=O)[C@H](Cc2ccc(-c3ccccc3)cc2)NC(=O)[C@H](C(C)C)NC(=O)[C@H](Cc2c[nH]c3ccccc23)NC(=O)[C@H](CC(=O)O)NC(=O)[C@H](Cc2ccc(OCC(=O)O)cc2)NC(=O)[C@H](CN)NC(=O)CSC[C@@H](C(=O)N[C@@H](C)C(N)=O)NC(=O)[C@H]([C@@H](C)O)NC(=O)[C@H](C(C)C)NC(=O)[C@H](Cc2ccccc2F)NC(=O)[C@H](CCN)NC1=O` [Compound 1485] ({CH2CO}-[Dap]Y(Carboxymethyl)DWV[Bip]E[Orn][dL][Dab][Phe(2-F)]VTCA-NH2; thioether N-14), the IC50 under setting [1] was found to be 15.5 nM.

`CCC(C)[C@@H]1NC(=O)[C@H](Cc2ccc(-c3ccccc3)cc2)NC(=O)[C@H](C(C)C)NC(=O)[C@H](Cc2cccc(C)c2F)NC(=O)[C@H](CC(=O)O)NC(=O)[C@H](Cc2ccc(OCC(=O)O)cc2)NC(=O)[C@H](CN)NC(=O)CSC[C@@H](C(=O)N[C@@H](C)C(N)=O)NC(=O)[C@H]([C@@H](C)O)NC(=O)[C@H](C(C)C)NC(=O)[C@H](CC2CCCCC2)NC(=O)[C@H](CCN)NC(=O)[C@@H](CC(C)C)NC(=O)[C@H](CCCN)NC1=O` (stereo partly drawn) [Compound 2243]: the IC50 under setting [1] was 16.2 nM.

With `Cc1cccc(C[C@@H]2NC(=O)[C@H](CC(=O)O)NC(=O)[C@H](Cc3ccc(OCC(=O)O)cc3)NC(=O)[C@H](CN)NC(=O)CSC[C@@H](C(=O)N[C@@H](C)C(N)=O)NC(=O)[C@H]([C@@H](C)O)NC(=O)[C@H](C(C)C)NC(=O)[C@H](CC3CCCCC3)NC(=O)[C@H](CCN)NC(=O)[C@@H](CC(C)C)NC(=O)[C@H](CCCN)NC(=O)[C@H](CCCN)NC(=O)[C@H](Cc3ccc(-c4ccccc4)cc3)NC(=O)[C@H](C(C)C)NC2=O)c1` [Compound 1311] ({CH2CO}-[Dap]Y(Carboxymethyl)D[Phe(3-Me)]V[Bip][Orn][Orn][dL][Dab][Cha]VTCA-NH2; thioether N-14), under setting [1], the IC50 amounted to 16 nM.

Take `Cc1cccc(C[C@@H]2NC(=O)[C@H](CC(=O)O)NC(=O)[C@H](Cc3ccc(C(=O)O)cc3)NC(=O)[C@H](Cc3ccncc3)NC(=O)CSC[C@@H](C(=O)N[C@@H](C)C(N)=O)NC(=O)[C@H]([C@@H](C)O)NC(=O)[C@H](C(C)C)NC(=O)[C@H](CC3CCCCC3)NC(=O)[C@H](CCN)NC(=O)[C@@H](CC(C)C)NC(=O)[C@H](CCCN)NC(=O)[C@H](c3ccccc3)NC(=O)[C@H](Cc3ccc(-c4ccccc4)cc3)NC(=O)[C@H](C(C)C)NC2=O)c1` [Compound 1616]: the IC50 under setting [1] was found to be 9.3 nM.

Turning to `CC(C)C[C@H]1NC(=O)[C@H](CCCN)NC(=O)[C@H](CCC(=O)O)NC(=O)[C@H](Cc2ccc(-c3ccccc3)cc2)NC(=O)[C@H](C(C)C)NC(=O)[C@H](Cc2c[nH]c3ccccc23)NC(=O)[C@H](CC(=O)O)NC(=O)[C@H](Cc2ccncc2)NC(=O)[C@H](Cc2ccccc2)NC(=O)CSC[C@@H](C(=O)N[C@@H](C)C(N)=O)NC(=O)[C@H]([C@@H](C)O)NC(=O)[C@H](C(C)C)NC(=O)[C@H](CC2CCCCC2)NC(=O)[C@H](CCN)NC1=O` [Compound 2196] ({CH2CO}-F[4Pal]DWV[Bip]E[Orn][dL][Dab][Cha]VTCA-NH2; thioether N-14), under setting [1], the IC50 stood at 11.6 nM.

As to `CC(C)C[C@H]1NC(=O)[C@H](CCCN)NC(=O)[C@H](CCC(=O)O)NC(=O)[C@H](Cc2ccc(-c3ccccc3)cc2)NC(=O)[C@H](C(C)C)NC(=O)[C@H](Cc2c[nH]c3ccccc23)NC(=O)[C@H](CCO)NC(=O)[C@H](Cc2ccc(OCC(=O)O)cc2)NC(=O)[C@H](CN)NC(=O)CSC[C@@H](C(=O)N[C@@H](C)C(N)=O)NC(=O)[C@H]([C@@H](C)O)NC(=O)[C@H](C(C)C)NC(=O)[C@H](CC2CCCCC2)NC(=O)[C@H](CCN)NC1=O` [Compound 1499] ({CH2CO}-[Dap]Y(Carboxymethyl)[hSer]WV[Bip]E[Orn][dL][Dab][Cha]VTCA-NH2; thioether N-14), the IC50 under setting [1] was determined as 663 nM.

In the case of `CCC(C)[C@@H]1NC(=O)[C@H](Cc2ccc(-c3ccccc3)cc2)NC(=O)[C@H](C(C)C)NC(=O)[C@H](Cc2cccc(C)c2)NC(=O)[C@H](CC(=O)O)NC(=O)[C@H](Cc2ccc(C(=O)O)cc2)NC(=O)[C@H](Cc2ccncc2)NC(=O)CSC[C@@H](C(N)=O)NC(=O)[C@H]([C@@H](C)O)NC(=O)[C@H](C(C)(C)C)NC(=O)[C@H](CC2CCCCC2)NC(=O)[C@H](CCN)NC(=O)[C@@H](CC(C)C)NC(=O)[C@H](CCCN)NC1=O` (stereo partly drawn) [Compound 2274] ({CH2CO}-[4Pal][Phe(4-COOH)]D[Phe(3-Me)]V[Bip][Ile(3ξ)][Orn][dL][Dab][Cha][Tle]TC-NH2; thioether N-14), the 50% inhibitory concentration (IC50) under setting [1] is 36.3 nM.

With `CC(C)C[C@H]1NC(=O)[C@H](CCCN)NC(=O)[C@H](C(C)C)NC(=O)[C@H](Cc2ccc(-c3ccccc3)cc2)NC(=O)[C@H](C(C)C)NC(=O)[C@H](Cc2c[nH]c3ccccc23)NC(=O)[C@H](CC(=O)O)NC(=O)[C@H](Cc2ccc(C(=O)O)cc2)NC(=O)[C@H](Cc2ccc(OCC(=O)O)cc2)NC(=O)CSC[C@@H](C(=O)N[C@@H](CCN)C(=O)N[C@@H](CCCNC(=N)N)C(=O)O)NC(=O)[C@H](CO)NC(=O)[C@H](C(C)C)NC(=O)[C@H](CC2CCCCC2)NC(=O)[C@H](CCN)NC1=O` [Compound 2586] ({CH2CO}-Y(Carboxymethyl)[Phe(4-COOH)]DWV[Bip]V[Orn][dL][Dab][Cha]VSC[Dab]R-OH; thioether N-14), under setting [2], the IC50 is 10 nM.

Regarding `CC(C)C[C@H]1NC(=O)[C@H](CCCN)NC(=O)[C@H](CCCCN)NC(=O)[C@H](Cc2ccc(-c3ccccc3)cc2)NC(=O)[C@H](C(C)C)NC(=O)[C@H](Cc2c[nH]c3ccccc23)NC(=O)[C@H](CC(=O)O)NC(=O)[C@H](Cc2ccncc2)NC(=O)[C@H](CN)NC(=O)CSC[C@@H](C(=O)N[C@@H](C)C(N)=O)NC(=O)[C@H]([C@@H](C)O)NC(=O)[C@H](C(C)C)NC(=O)[C@H](CC2CCCCC2)NC(=O)[C@H](CCN)NC1=O` [Compound 1389] ({CH2CO}-[Dap][4Pal]DWV[Bip]K[Orn][dL][Dab][Cha]VTCA-NH2; thioether N-14), the IC50 under setting [1] turned out to be 8.5 nM.

In the case of `CC[C@H](C)[C@@H]1NC(=O)[C@H](Cc2ccc(-c3ccccc3)cc2)NC(=O)[C@H](C(C)C)NC(=O)[C@H](Cc2c[nH]c3ccccc23)NC(=O)[C@H](CC(=O)O)NC(=O)[C@H](Cc2ccc(C(=O)O)cc2)NC(=O)[C@H](Cc2ccc(OCC(=O)O)cc2)NC(=O)CSC[C@@H](C(=O)N[C@@H](C)C(N)=O)NC(=O)[C@H]([C@@H](C)O)NC(=O)[C@H](C(C)C)NC(=O)[C@H](Cc2ccc(O)cc2)NC(=O)[C@H](CCN)NC(=O)[C@@H](CC(C)C)NC(=O)[C@H](CCCN)NC1=O` [Compound 1679] ({CH2CO}-Y(Carboxymethyl)[Phe(4-COOH)]DWV[Bip]I[Orn][dL][Dab]YVTCA-NH2; thioether N-14), the IC50 under setting [1] was 92.2 nM.

For `Cc1cccc(C[C@@H]2NC(=O)[C@H](CC(=O)O)NC(=O)[C@H](Cc3ccc(C(=O)O)cc3)NC(=O)[C@H](Cc3ccncc3)NC(=O)CSC[C@@H](C(=O)N[C@@H](C)C(N)=O)NC(=O)[C@H]([C@@H](C)O)NC(=O)[C@H](C(C)C)NC(=O)[C@H](CC3CCCCC3)NC(=O)[C@H](Cc3c[nH]cn3)NC(=O)[C@@H](CC(C)C)NC(=O)[C@H](CCCN)NC(=O)[C@H](C(C)C)NC(=O)[C@H](Cc3ccc(-c4ccccc4)cc3)NC(=O)[C@H](C(C)C)NC2=O)c1` [Compound 1581], the IC50 under setting [2] was 22.4 nM.

In the case of `CC(C)C[C@H]1NC(=O)[C@H](CCCN)NC(=O)[C@H](CCC(=O)O)NC(=O)[C@H](Cc2ccc(-c3ccccc3)cc2)NC(=O)[C@H](C(C)C)NC(=O)[C@H](Cc2c[nH]c3ccccc23)NC(=O)[C@H](CC(=O)O)NC(=O)[C@H](Cc2ccc(OCC(=O)O)cc2)NC(=O)[C@H](CN)NC(=O)CSC[C@@H](C(=O)N[C@@H](C)C(N)=O)NC(=O)[C@H]([C@@H](C)O)NC(=O)[C@H](C(C)C)NC(=O)[C@H](CC2CCCCC2)NC(=O)[C@H]([C@@H](C)O)NC1=O` [Compound 1517] ({CH2CO}-[Dap]Y(Carboxymethyl)DWV[Bip]E[Orn][dL]T[Cha]VTCA-NH2; thioether N-14), the IC50 under setting [1] worked out at 34.2 nM.

Consider `CCC(C)[C@@H]1NC(=O)[C@H](Cc2ccc(-c3ccccc3)cc2)NC(=O)[C@H](C(C)C)NC(=O)[C@H](Cc2c[nH]c3ccccc23)NC(=O)[C@H](CC(=O)O)NC(=O)[C@H](Cc2ccc(OCC(=O)O)cc2)NC(=O)[C@H](Cc2cccc3ccccc23)NC(=O)CSC[C@@H](C(=O)N[C@@H](C)C(N)=O)NC(=O)[C@H](C(C)O)NC(=O)[C@H](C(C)C)NC(=O)[C@H](CC2CCCCC2)NC(=O)[C@H](CCN)NC(=O)[C@@H](CC(C)C)NC(=O)[C@H](CCCN)NC1=O` (stereo partly drawn) [Compound 2521], for which, under setting [1], the IC50 was found to be 38.1 nM.

For the molecule `Cc1cccc(C[C@@H]2NC(=O)[C@H](CC(=O)O)NC(=O)[C@H](Cc3ccc(OCC(=O)O)cc3)NC(=O)[C@H](Cc3cccnc3)NC(=O)CSC[C@@H](C(=O)N[C@@H](C)C(N)=O)NC(=O)[C@H]([C@@H](C)O)NC(=O)[C@H](C(C)C)NC(=O)[C@H](CC3CCCCC3)NC(=O)[C@H](Cc3cnc[nH]3)NC(=O)[C@@H](CC(C)C)NC(=O)[C@H](CCCN)NC(=O)[C@H](C(C)C)NC(=O)[C@H](Cc3ccc(-c4ccccc4)cc3)NC(=O)[C@H](C(C)C)NC2=O)c1` [Compound 1587], the IC50 under setting [1] turned out to be 26 nM.
